Experimental data: patent US11583516B2, “Dash inhibitors, and uses related thereto” (Trustees of Tufts College, priority 2016, dated 2023)
Read-outs that look alike come from different tables or passages of the source.

Key:
HEL cells = assay: Cell line drug sensitivity (CellTiter-Glo); assay type: cell-based; settings: AML/Erythroleukemis M6, 48 h, read-out: IC50
Procedure: (§1) SET-2, RS4;11, and SKM-1 cells were purchased from DSMZ. HL-60, MV4;11, OCI-AML2, NB4, MOLM-13, NOMO-1, DAOY, HEL, IMR-5, K562, Kasumi-1, ONS-76, RDES-1, and TC-71 cells were a gift from Alex Kentsis and verified using STR genotyping (Genetica). […] MCF-7, Jurkat, THP-1, U937, HL-60, MV4;11, OCI-AML2, NB4, MOLM-13, NOMO-1, HEL, K562, SET-2, RS4;11, SKM-1 and Kasumi-1 were grown in RPMI-1640 medium with 10% FBS. All cells were grown at 37° C. in a 5% CO2 incubator. Cell lines were tested for mycoplasma using the MycoAlert Mycoplasma Detection Kit (Lonza).
(§2) Cells were plated (2000 cells/well) in white, 384-well clear bottom plates using an EL406 Microplate Washer/Dispenser (BioTek) in 25 μL final volume of media. Compounds were added using a pintool (CyBio) and cells were incubated for 48 h at 37° C. Assay plates were then removed from the incubator and allowed to equilibrate to room temperature on the bench top before addition of 10 μL of CellTiter-Glo reagent (Promega) according to the manufacturer's instructions. Assay plates were shaken on an orbital shaker for 2 minutes and incubated at room temperature on the bench top for 10 minutes. Luminescence was then read using a Cytation 5 Cell Imaging Multi-Mode Reader (BioTek). (FIG. 6)

RDES-1 cells = assay: Cell line drug sensitivity (CellTiter-Glo); assay type: cell-based; settings: RDES-1, Ewing's sarcoma; 48 h; read-out: IC50
Procedure: as §1, §2

MOLM-13 cells = assay: Cell line drug sensitivity (CellTiter-Glo); assay type: cell-based; settings: MOLM-13, AML M5; 48 h; read-out: IC50
Procedure: as §1, §2

Kasumi-1 cells = assay: Cell line drug sensitivity (CellTiter-Glo); assay type: cell-based; settings: Kasumi-1, AML M2; 48 h; read-out: IC50
Procedure: as §1, §2

TC-71 cells = assay: Cell line drug sensitivity (CellTiter-Glo); assay type: cell-based; settings: TC-71, Ewing's sarcoma; 48 h; read-out: IC50
Procedure: as §1, §2

KG-1 cells = assay: Cell line drug sensitivity (CellTiter-Glo); assay type: cell-based; settings: KG-1, AML M0; 48 h; read-out: IC50
Procedure: as §1, §2

NOMO-1 cells = assay: Cell line drug sensitivity (CellTiter-Glo); assay type: cell-based; settings: NOMO-1, AML M5; 48 h; read-out: IC50
Procedure: as §1, §2

MCF7 cells = assay: Cell line drug sensitivity (CellTiter-Glo); assay type: cell-based; settings: MCF7, Breast; 48 h; read-out: IC50
Procedure: as §1, §2

IMR-5 cells = assay: Cell line drug sensitivity (CellTiter-Glo); assay type: cell-based; settings: IMR-5, Neuroblastoma; 48 h; read-out: IC50
Procedure: as §1, §2

U937 cells = assay: Cell line drug sensitivity (CellTiter-Glo); assay type: cell-based; settings: U937, AML/histiocytic lymphoma M5; 48 h; read-out: IC50
Procedure: as §1, §2

K562 cells = assay: Cell line drug sensitivity (CellTiter-Glo); assay type: cell-based; settings: K562, CML/Erythroleukemia; 48 h; read-out: IC50
Procedure: as §1, §2

Jurkat cells = assay: Cell line drug sensitivity (CellTiter-Glo); assay type: cell-based; settings: T-ALL, 48 h, read-out: IC50
Procedure: as §1, §2

SET-2 cells = assay: Cell line drug sensitivity (CellTiter-Glo); assay type: cell-based; settings: SET-2, AML/MPN; 48 h; read-out: IC50
Procedure: as §1, §2

HT-1080 cells = assay: Cell line drug sensitivity (CellTiter-Glo); assay type: cell-based; settings: HT-1080, Fibrosarcoma; 48 h; read-out: IC50
Procedure: as §1, §2

HL-60 cells = assay: Cell line drug sensitivity (CellTiter-Glo); assay type: cell-based; settings: HL-60, AML M2; 48 h; read-out: IC50
Procedure: as §1, §2

ONS-76 cells = assay: Cell line drug sensitivity (CellTiter-Glo); assay type: cell-based; settings: ONS-76, Medulloblastoma; 48 h; read-out: IC50
Procedure: as §1, §2

OCI-AML3 cells = assay: Cell line drug sensitivity (CellTiter-Glo); assay type: cell-based; settings: OCI-AML3, AML M4; 48 h; read-out: IC50
Procedure: as §1, §2

THP-1 cells = assay: Cell line drug sensitivity (CellTiter-Glo); assay type: cell-based; settings: THP-1, AML M5; 48 h; read-out: IC50
Procedure: as §1, §2

SKM-1 cells = assay: Cell line drug sensitivity (CellTiter-Glo); assay type: cell-based; settings: SKM-1, AML M5; 48 h; read-out: IC50
Procedure: as §1, §2

DAOY cells = assay: Cell line drug sensitivity (CellTiter-Glo); assay type: cell-based; settings: DAOY, Medulloblastoma; 48 h; read-out: IC50
Procedure: as §1, §2

[1] = Maximum tolerated dose study (single dose); assay type: in vivo, Sprague Dawley rats; settings: with Pyrrophenone or AACOCF3, based on serum drug levels
Text: Bars show the MTD single dose in SD rats prior to seeing animal death. […] See also FIG. 33 for a similar comparison using cPLA2 inhibitors instead of COX inhibitors.
Bars show the MTD single dose in SD rats prior to seeing animal death. Based on serum drug levels, the addition of a cPLA2 inhibitors to the I-DASH inhibitor increases that MTD dose by at least 20-fold.
Bars show the MTD single dose in SD rats prior to seeing animal death.

NB4 cells = assay: Cell line drug sensitivity (CellTiter-Glo); assay type: cell-based; settings: NB4, AML/APL M3; 48 h; read-out: IC50
MV4;11 cells = assay: Cell line drug sensitivity (CellTiter-Glo); assay type: cell-based; settings: MV4;11, AML M5; 48 h; read-out: IC50
G-CSF = assay: Serum cytokine induction in mice (G-CSF screen); assay type: in vivo, BALB/c mice
Text: No. MKC00B) • IL-18 (R&D Systems, Cat. […] Systems, Cat. No. […])

AML cell lines = assay: AML cell line sensitivity, summary over the panel; assay type: cell-based; settings: most of these AML cell lines
Procedure: as §1, §2

cancer = settings: in the clinic; cited from earlier work
RAW 264.7 WT cells = assay: Pyroptosis IC50 in cells; assay type: cell-based
RS4;11 cells = assay: Cell line drug sensitivity (CellTiter-Glo); assay type: cell-based; settings: RS4;11, AML/B-ALL; 48 h; read-out: IC50
MV4;11 Luc-Neo = assay: Pyroptosis IC50 in cells; assay type: cell-based
THP-1 sgGFP = assay: Pyroptosis IC50 in cells; assay type: cell-based
MB49 tumor = assay: MB49 efficacy studies; assay type: in vivo, C57BL/6 mice
CT26 cells = assay: CT26 cell viability; assay type: cell-based
CT26 tumor = assay type: in vivo; settings: CT26 model

Structure (SMILES): CC(C)[C@H](N)C(=O)N1CCC[C@H]1B(O)O [ARI-2054, Valine-boroProline]
- IC50 (HEL cells): > 60 µM
- IC50 (RDES-1 cells): > 60 µM
- IC50 (MOLM-13 cells): 0.12 µM
- IC50 (Kasumi-1 cells): > 60 µM
- IC50 (TC-71 cells): > 60 µM
- IC50 (KG-1 cells): 0.02 µM
- IC50 (NOMO-1 cells): 0.16 µM
- IC50 (MCF7 cells): > 60 µM
- IC50 (IMR-5 cells): > 60 µM
- IC50 (U937 cells): > 60 µM
- IC50 (K562 cells): > 60 µM
- IC50 (Jurkat cells): > 60 µM
- IC50 (SET-2 cells): 0.006 µM
- IC50 (HT-1080 cells): > 60 µM
- IC50 (HL-60 cells): 0.115 µM
- IC50 (ONS-76 cells): > 60 µM
- IC50 (OCI-AML3 cells): 0.08 µM
- IC50 (THP-1 cells): 0.206 µM
- IC50 (SKM-1 cells): 0.044 µM
- IC50 (DAOY cells): > 60 µM
- Increase of MTD dose by addition of a cPLA2 inhibitor [1]: at least 20 fold
- IC50 (NB4 cells): 0.1 µM
- IC50 (MV4;11 cells): 0.078 µM
- Average [G-CSF] at 6 hrs (G-CSF; 20 μg/animal PO): 55000 pg/mL
- Average [G-CSF] at 6 hrs (G-CSF; 20 μg/animal SC): 97000 pg/mL
- IC50 (AML cell lines): > 0.1 µM
- Clinical response (cancer): some partial and complete responses
- Clinical toxicity (cancer): discontinued due to dose-limiting toxicity
- IC50 (RAW 264.7 WT cells): 0.098 µM
- IC50 (RS4;11 cells): 0.147 µM
- IC50 (MV4;11 Luc-Neo): 0.06 µM
- IC50 (THP-1 sgGFP): 0.168 µM
- Tumor regression in combination with celecoxib (MB49 tumor; 20 microgram dose of Val-boroPro plus celecoxib): facilitated the achievement of tumor regression
- Antitumor activity in combination with celecoxib (MB49 tumor; Val-boroPro plus celecoxib): increased the antitumor activity of Val-boroPro markedly (statistically significantly) and in a dose-dependent manner
- EC50 (CT26 cells): > 1000 µM
- Inhibition of tumor growth (average) (CT26 tumor; 10 micrograms): about 30%
- Inhibition of tumor growth (average) (CT26 tumor; 20 micrograms): ~80%
